Laboratory results from patent US11111245B2, “Derivatives of N-cycloalkyl/heterocycloalkyl-4-(imidazo[1,2-a]pyridine)pyrimidin-2-amine as therapeutic agents” (Aucentra Therapeutics Pty Ltd, priority 2017, dated 2021).

Key:
CDK4/D1 = CDK4/D1 (Homo sapiens, UniProt P11802); assay: ADP Glo Kinase assay CDK4/D1; type: biochemical; settings: CDK4D1; for remaining activity at 10 µM: compound at 10 μM, read-out: residual activity (%) at 10 μM CDK4D1; for Ki: read-out: CDK inhibition, Ki (μM) CDK4D1
Outline: (§1)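 Luminescent ADP detection measured activity after a 40 min, 37° C ATP-initiated reaction, using RB-CTF for CDK4/D1 and CDK6/D3 and RBER-IRStide for CDK9/T1. Controls lacked or contained kinase. Values: IC50 by four-parameter nonlinear regression, Ki from ATP Km.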

CDK6/D3 = CDK6/D3 (Homo sapiens, UniProt Q00534); assay: ADP Glo Kinase assay CDK6/D3; type: biochemical; settings: CDK6D3; for remaining activity at 10 µM: compound at 10 μM, read-out: residual activity (%) at 10 μM CDK6D3; for Ki: read-out: CDK inhibition, Ki (μM) CDK6D3
Chain of CDK6/D3 (Q00534 whole entry): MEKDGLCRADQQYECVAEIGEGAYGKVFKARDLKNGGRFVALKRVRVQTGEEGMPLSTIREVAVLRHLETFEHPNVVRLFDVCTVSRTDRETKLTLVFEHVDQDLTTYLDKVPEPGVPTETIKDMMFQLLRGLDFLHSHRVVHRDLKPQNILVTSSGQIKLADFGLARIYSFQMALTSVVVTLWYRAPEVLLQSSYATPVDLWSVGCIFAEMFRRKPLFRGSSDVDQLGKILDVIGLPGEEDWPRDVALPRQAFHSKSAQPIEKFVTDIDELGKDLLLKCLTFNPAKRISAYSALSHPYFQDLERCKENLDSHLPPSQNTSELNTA
Chain of CDK6/D3 (P30281 whole entry partner): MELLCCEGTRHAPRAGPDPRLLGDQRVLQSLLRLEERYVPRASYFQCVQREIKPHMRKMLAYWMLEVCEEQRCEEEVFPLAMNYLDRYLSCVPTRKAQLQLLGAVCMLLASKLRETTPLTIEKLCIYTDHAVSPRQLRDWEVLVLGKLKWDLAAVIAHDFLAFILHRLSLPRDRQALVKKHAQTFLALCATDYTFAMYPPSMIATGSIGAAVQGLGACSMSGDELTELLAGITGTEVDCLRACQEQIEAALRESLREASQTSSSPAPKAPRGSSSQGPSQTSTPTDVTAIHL
Method: Eurofins Pharma Discovery or Reaction Biology Corporation Kinase Profiler services were used to measure inhibition of CDKs and other kinases by radiometric assay. Inhibition of CDK4/D1, CDK6/D3 and CDK9/T1 were also determined in-house using ADP Glo Kinase assays (Promega Corporation, Madison, USA). Briefly, the kinase reaction for CDK4/D1 and CDK6/D3 was performed with kinase reaction buffer ([…] Tris base pH 7.5, 20 mM MgCl2, 0.4 mM DTT), 0.1 mg/ml BSA and RB-CTF substrate (retinoblastoma protein 1 C-terminal fraction). For CDK9/CyclinT1, the kinase reaction was performed with standard assay buffer and Kinase Dilution Buffer and RBER-IRStide substrate. Serial dilutions of 1:3 were prepared for test compounds for 10 concentrations (from 10 μM to 0.5 nM). The kinase reactions were started by addition of ATP, incubated for 40 min at 37° C. and then stopped by adding 10 μL of ADP Glo reagent. After incubation at room temperature in the dark for 40 min, 20 μL of kinase detection reagent was added per well and incubated for 40 min. Luminescence was measured using an EnVision Multilabel plate reader (PerkinElmer, Buckinghamshire, UK). Positive and negative controls were performed in the presence and absence of CDK kinases, respectively. Half-maximal inhibition (IC50) values were calculated using a 4-parameter logistic non-linear regression model with Graphpad prism (Version 6.0). Apparent inhibition constants (Ki) values were calculated from Km (ATP) and IC50 values for the respective kinases.

CDK9/T1 = CDK9/T1 (Homo sapiens, UniProt P50750); assay: ADP Glo Kinase assay CDK9/T1; type: biochemical; settings: CDK9T1; read-out: CDK inhibition, Ki (μM) CDK9T1
Chain of CDK9/T1 (P50750 whole entry): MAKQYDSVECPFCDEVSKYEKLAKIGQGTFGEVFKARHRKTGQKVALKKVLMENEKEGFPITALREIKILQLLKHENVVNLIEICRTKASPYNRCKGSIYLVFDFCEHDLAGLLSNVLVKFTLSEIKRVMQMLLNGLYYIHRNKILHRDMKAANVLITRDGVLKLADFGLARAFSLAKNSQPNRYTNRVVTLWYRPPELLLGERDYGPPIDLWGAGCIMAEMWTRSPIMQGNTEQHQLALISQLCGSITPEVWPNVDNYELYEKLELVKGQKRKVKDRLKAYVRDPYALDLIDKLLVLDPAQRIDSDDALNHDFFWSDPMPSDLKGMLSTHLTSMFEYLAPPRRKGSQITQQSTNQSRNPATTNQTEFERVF
Chain of CDK9/T1 (O60563 whole entry partner): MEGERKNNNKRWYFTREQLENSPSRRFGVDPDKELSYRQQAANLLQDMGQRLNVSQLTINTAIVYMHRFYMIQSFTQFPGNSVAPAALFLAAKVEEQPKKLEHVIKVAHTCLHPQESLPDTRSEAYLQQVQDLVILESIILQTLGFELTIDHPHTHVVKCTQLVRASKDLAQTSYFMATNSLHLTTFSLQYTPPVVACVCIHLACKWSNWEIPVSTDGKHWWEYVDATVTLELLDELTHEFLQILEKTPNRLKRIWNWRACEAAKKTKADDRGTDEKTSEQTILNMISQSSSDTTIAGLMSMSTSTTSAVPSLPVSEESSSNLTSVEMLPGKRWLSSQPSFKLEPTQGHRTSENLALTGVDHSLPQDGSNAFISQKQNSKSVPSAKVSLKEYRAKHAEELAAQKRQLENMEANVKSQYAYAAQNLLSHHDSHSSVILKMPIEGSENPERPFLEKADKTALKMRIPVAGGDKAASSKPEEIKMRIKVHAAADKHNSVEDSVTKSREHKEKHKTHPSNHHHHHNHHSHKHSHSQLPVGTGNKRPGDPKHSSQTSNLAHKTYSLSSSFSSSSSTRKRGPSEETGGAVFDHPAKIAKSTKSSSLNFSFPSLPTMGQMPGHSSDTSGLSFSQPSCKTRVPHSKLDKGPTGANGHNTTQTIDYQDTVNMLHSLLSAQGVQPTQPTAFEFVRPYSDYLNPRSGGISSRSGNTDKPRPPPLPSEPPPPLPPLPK
Outline: as §1

leukemia cell lines = assay: Resazurin cell viability assay on leukemia cell lines (72 h growth inhibition, GI50); type: cell-based; settings: Homo sapiens, MV4-11 cells
Outline: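 Viability is measured by MTT in solid tumour cells and by resazurin in leukaemia cells. Reported values are GI50s calculated with non-linear regression analysis.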

CDKs and other kinases [1] = target: T1, CDKs and other kinases (Homo sapiens, UniProt P06493); assay: Radiometric kinase assay (Eurofins Pharma Discovery or Reaction Biology Corporation Kinase Profiler); type: biochemical; settings: CDK1B; for remaining activity at 10 µM: compound at 10 μM, read-out: residual activity (%) at 10 μM CDK1B; for Ki: read-out: CDK inhibition, Ki (μM) CDK1B
T1 construct: other: CDK1B; residual activity (%) at 10 μM CDK1B; compound at 10 μM
T1 sequence (P06493 whole entry): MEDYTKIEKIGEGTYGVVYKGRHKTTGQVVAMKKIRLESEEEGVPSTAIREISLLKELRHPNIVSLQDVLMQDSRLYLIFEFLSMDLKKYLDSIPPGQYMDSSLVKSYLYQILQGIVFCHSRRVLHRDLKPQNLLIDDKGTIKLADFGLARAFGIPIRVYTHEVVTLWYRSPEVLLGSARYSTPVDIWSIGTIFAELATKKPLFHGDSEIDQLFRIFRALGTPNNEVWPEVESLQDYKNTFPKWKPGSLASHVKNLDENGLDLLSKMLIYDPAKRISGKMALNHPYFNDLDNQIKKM
Outline: (§2)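 Other CDKs and further kinases were profiled externally by radiometric assay. In-house ADP Glo assays covered CDK4/D1 and CDK6/D3 (RB-CTF substrate, pH 7.5 Tris buffer with MgCl2, DTT, BSA) and CDK9/T1 (RBER-IRStide substrate), 40 min at 37° C.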

CDKs and other kinases [2] = target: T2, CDKs and other kinases (Homo sapiens, UniProt P24941); assay: as above; type: biochemical; settings: CDK2A; for remaining activity at 10 µM: compound at 10 μM, read-out: residual activity (%) at 10 μM CDK2A; for Ki: read-out: CDK inhibition, Ki (μM) CDK2A
T2 construct: other: CDK2A; residual activity (%) at 10 μM CDK2A; compound at 10 μM
Outline: as §2

CDKs and other kinases [3] = target: T3, CDKs and other kinases (Homo sapiens, UniProt P50613); assay: as above; type: biochemical; settings: CDK7H; for remaining activity at 10 µM: compound at 10 μM, read-out: residual activity (%) at 10 μM CDK7H; for Ki: read-out: CDK inhibition, Ki (μM) CDK7H
T3 construct: other: CDK7H; residual activity (%) at 10 μM CDK7H; compound at 10 μM
T3 sequence (P50613 whole entry): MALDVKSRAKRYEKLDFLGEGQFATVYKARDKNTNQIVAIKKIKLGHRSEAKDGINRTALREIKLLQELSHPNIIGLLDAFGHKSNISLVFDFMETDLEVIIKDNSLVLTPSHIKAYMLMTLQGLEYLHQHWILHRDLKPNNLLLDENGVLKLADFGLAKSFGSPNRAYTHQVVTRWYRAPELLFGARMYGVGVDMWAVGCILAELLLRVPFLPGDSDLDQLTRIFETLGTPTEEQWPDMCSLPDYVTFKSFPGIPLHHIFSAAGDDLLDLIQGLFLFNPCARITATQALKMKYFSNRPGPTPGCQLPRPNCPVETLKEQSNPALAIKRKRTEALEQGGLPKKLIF
Outline: as §2

Chain of CDK4/D1 (P11802 whole entry): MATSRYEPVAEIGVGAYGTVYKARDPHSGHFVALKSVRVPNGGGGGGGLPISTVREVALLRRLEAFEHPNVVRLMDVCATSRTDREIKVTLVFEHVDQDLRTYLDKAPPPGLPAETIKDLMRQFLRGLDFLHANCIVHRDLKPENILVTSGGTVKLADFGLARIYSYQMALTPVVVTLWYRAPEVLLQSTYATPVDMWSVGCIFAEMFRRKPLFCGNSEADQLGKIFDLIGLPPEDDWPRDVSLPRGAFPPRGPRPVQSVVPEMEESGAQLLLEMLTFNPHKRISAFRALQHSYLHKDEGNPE
Chain of CDK4/D1 (P24385 whole entry partner): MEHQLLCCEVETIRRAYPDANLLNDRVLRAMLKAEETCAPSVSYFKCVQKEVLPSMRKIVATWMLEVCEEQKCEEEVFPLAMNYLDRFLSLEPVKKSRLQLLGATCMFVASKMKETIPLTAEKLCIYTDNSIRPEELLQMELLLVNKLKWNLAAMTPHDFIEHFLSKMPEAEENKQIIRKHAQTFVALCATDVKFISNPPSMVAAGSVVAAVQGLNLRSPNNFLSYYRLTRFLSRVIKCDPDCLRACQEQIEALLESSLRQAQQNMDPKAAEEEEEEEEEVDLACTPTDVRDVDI

| Compound | remaining activity at 10 µM (CDK4/D1) [%] | remaining activity at 10 µM (CDK6/D3) [%] | Ki (CDK9/T1) [µM] | GI50 (leukemia cell lines) [µM] | remaining activity at 10 µM (CDKs and other kinases [1]) [%] | remaining activity at 10 µM (CDKs and other kinases [2]) [%] | remaining activity at 10 µM (CDKs and other kinases [3]) [%] | residual activity at 10 µM (CDKs and other kinases [3]) [%] | Ki (CDKs and other kinases [1]) [µM] | Ki (CDKs and other kinases [2]) [µM] | Ki (CDKs and other kinases [3]) [µM] | Ki (CDK4/D1) [µM] | Ki (CDK6/D3) [µM] |
| --- | --- | --- | --- | --- | --- | --- | --- | --- | --- | --- | --- | --- | --- |
| Cc1cnc(N[C@H]2CC[C@H](N)CC2)nc1-c1cnc2ccc(Nc3ccncn3)cn12 [Compound 116, (1r,4r)-N^1-(5-Methyl-4-(6-(pyrimidin-4-ylamino)imidazo [1,2-a]pyridin-3-yl)pyrimidin-2-yl)cyclohexane-1,4-diamine] | 18 | 86 | 0.106 | 0.885 ± 0.137 |  |  |  |  |  |  |  |  |  |
| N[C@H]1CC[C@H](Nc2ncc(F)c(-c3cnc4ccc(-c5ncccc5F)cn34)n2)CC1 [Compound 27, (1r,4r)-N^1-(5-Fluoro-4-(6-(3-fluoropyridin-2-yl)imidazo [1,2-a]pyridin-3-yl)pyrimidin-2-yl)cyclohexane-1,4-diamine] | 4 | 15 | 0.003 | < 0.001 | -1 | 4 | 2 |  |  |  |  |  |  |
| Cc1cnc(N[C@H]2CC[C@H](NC3CCN(C)CC3)CC2)nc1-c1cnc2ccc(-c3ccccc3)cn12 [Compound 90, (1r,4r)-N^1-(5-Methyl-4-(6-phenylimidazo[1,2-a]pyridin-3-yl)pyrimidin-2-yl)-N4-(1-methylpiperidin-4-yl) cyclohexane-1,4-diamine] | 24 | 80 | 0.211 | 0.229 ± 0.015 | 57 | 44 |  | 295 |  |  |  |  |  |
| Cc1cnc(NC2CCCC(N)C2)nc1-c1cnc2ccc(Nc3cncnc3)cn12 (centres unmarked) [Compound 96, N^1-(5-Methyl-4-(6-(pyrimidin-5-ylamino)imidazo[1,2-a]pyridin-3-yl)pyrimidin-2-yl)cyclohexane-1,3-diamine] | 49 | 90 | 0.193 | > 10 | 63 | 37 | 63 |  |  |  |  |  |  |
| Cc1cnc(NC2CCCC(N)C2)nc1-c1cnc2ccc(-c3ccccc3)cn12 (centres unmarked) [Compound 94, N^1-(5-Methyl-4-(6-phenylimidazo[1,2-a]pyridin-3-yl)pyrimidin-2-yl)cyclohexane-1,3-diamine] | 25 | 45 | 0.388 | 0.748 ± 0.063 | 20 | 12 | 10 |  |  |  |  |  |  |
| Cc1noc(C)c1-c1ccc2ncc(-c3nc(N[C@H]4CC[C@H](N)CC4)ncc3Cl)n2c1 [Compound 83, (1r,4r)-N^1-(5-Chloro-4-(6-(3,5-dimethylisoxazol-4-yl)imidazo[1,2-a]pyridin-3-yl)pyrimidin-2-yl)cyclohexane-1,4-diamine] | 27 | 80 | 0.065 | 0.052 ± 0.011 |  |  |  |  | 2.56 | 0.91 | 0.58 |  |  |
| Cc1cnc(N[C@H]2CC[C@H](N)CC2)nc1-c1cnc2ccc(Nc3cccnn3)cn12 [Compound 71, (1r,4r)-N^1-(5-Methyl-4-(6-(pyridazin-3-ylamino)imidazo [1,2-a]pyridin-3-yl)pyrimidin-2-yl)cyclohexane-1,4-diamine] | 35 | 66 | 0.203 | 0.383 ± 0.119 |  |  |  |  | 6.05 | 2.66 | 5.19 |  |  |
| Cc1cnc(N[C@H]2CC[C@H](N)CC2)nc1-c1cnc2ccc(Nc3cccnc3)cn12 [Compound 34, (1r,4r)-N^1-(5-Methyl-4-(6-(pyridin-3-ylamino)imidazo [1,2-a]pyridin-3-yl)pyrimidin-2-yl)cyclohexane-1,4-diamine] |  |  | 0.005 | 0.095 ± 0.031 |  |  |  |  | 2.16 | 0.09 | 2.24 | 2.8 | 1.05 |
| N[C@H]1CC[C@H](Nc2ncc(-c3ccccc3)c(-c3cnc4ccc(-c5ccccc5)cn34)n2)CC1 [Compound 80, (1r,4r)-N^1-(5-Phenyl-4-(6-phenylimidazo[1,2-a]pyridin-3-yl)pyrimidin-2-yl)cyclohexane-1,4-diamine] | 61 | 54 | 0.2 | 0.243 ± 0.053 |  |  |  |  |  |  |  |  |  |
| CS(=O)(=O)N[C@H]1CC[C@H](Nc2ncc(F)c(-c3cnc4ccccn34)n2)CC1 [Compound 16, N-((1r,4r)-4-((5-Fluoro-4-(imidazo[1,2-a]pyridin-3-yl)pyrimidin-2-yl)amino)cyclohexyl)methanesulfonamide] |  | 32 | 0.029 | 0.01 ± 0.001 |  |  | 50 |  |  | 0.001 |  |  |  |
| N[C@H]1CC[C@H](Nc2ncc(F)c(-c3cnc4ccc(F)cn34)n2)CC1 [Compound 2, (1r,4r)-N^1-(5-Fluoro-4-(6-fluoroimidazo[1,2-a]pyridin-3-yl)pyrimidin-2-yl)cyclohexane-1,4-diamine] |  | 5 | 0.005 | 0.006 ± 0.001 |  |  |  |  | 0.085 | 0.012 | 0.034 |  |  |
| Cc1ccc2ncc(-c3nc(N[C@H]4CC[C@H](N)CC4)ncc3F)n2c1 [Compound 4, (1r,4r)-N^1-(5-Fluoro-4-(6-methylimidazo[1,2-a]pyridin-3-yl)pyrimidin-2-yl)cyclohexane-1,4-diamine] | 0 | 2 | 0.003 | 0.004 ± 0.001 | 1 | 2 |  |  |  |  |  |  |  |
| N[C@H]1CC[C@H](Nc2ncc(Cl)c(-c3cnc4ccc(Nc5cncnc5)cn34)n2)CC1 [Compound 88, (1r,4r)-N^1-(5-Chloro-4-(6-(pyrimidin-5-ylamino)imidazo [1,2-a]pyridin-3-yl)pyrimidin-2-yl)cyclohexane-1,4-diamine] |  |  | 0.002 |  |  |  |  |  | 0.16 | 0.019 | 1.26 | 0.06 | 0.034 |
| C[C@]12C[C@]3(C)C[C@](O)(C1)C[C@](Nc1ncc(F)c(-c4cnc5ccc(-c6ccccc6)cn45)n1)(C2)C3 [Compound 110, (1s,3r,5R,7S)-3-((5-Fluoro-4-(6-phenylimidazo[1,2-a]pyridin-3-yl)pyrimidin-2-yl)amino)-5,7-dimethyladamantan-1-ol] | 99 | 100 | > 5 |  | 66 | 61 | 87 |  |  |  |  |  |  |
| N[C@H]1CC[C@H](Nc2ncc(Cl)c(-c3cnc4cc(Nc5cncnc5)ccn34)n2)CC1 [Compound 118, (1r,4r)-N^1-(5-Chloro-4-(7-(pyrimidin-5-ylamino)imidazo [1,2-a]pyridin-3-yl)pyrimidin-2-yl)cyclohexane-1,4-diamine] | 0 | 6 | 0.036 |  |  |  |  |  | 0.154 | 0.026 | 0.018 |  |  |
